Literature values as cited in patent US6803187B1 (priority 1998, dated 2004).

Legend:
HIV protease = details: HIV-1 protease numbering

CC(C)(C)NC(=O)[C@@H]1CN(Cc2cccnc2)CCN1C[C@@H](O)C[C@@H](Cc1ccccc1)C(=O)N[C@H]1c2ccccc2C[C@H]1O [MK-639, indinavir]
share of indinavir resistant isolates cross-resistant to nelfinavir (HIV; human, in vivo): Approximately one third

CC(C)(C)NC(=O)[C@@H]1C[C@@H]2CCCC[C@@H]2CN1C[C@@H](O)[C@H](Cc1ccccc1)NC(=O)[C@H](CC(N)=O)NC(=O)c1ccc2ccccc2n1 [Ro 31-8959, saquinavir]
patients in whom resistant variants emerge (HIV; after 1 year of monotherapy, mutations at positions 90 and/or 48): approximately 45%

CC(C)CN(C[C@@H](O)[C@H](Cc1ccccc1)NC(=O)O[C@H]1CCOC1)S(=O)(=O)c1ccc(N)cc1 [VX-478]
amino acid position/codon whose change confers resistance (HIV protease): 50
